Laboratory results from patent US9511134B2, “Inducing immune responses to influenza virus using polypeptide and nucleic acid compositions” (priority 2006, dated 2016).

Experiments:
Assay in all cases: biochemical
Format in all cases: binding
[1] = target: T1, DRB1*0101 (Homo sapiens, UniProt P01903+P01911, A100R/D57E/F55L/F60I/F76Y/I96L/L162R/M171V/P40L/Q125E/R42F/V115G/Y59C); conditions: IC50 nM to purified HLA DRB1*0101
T1 construct: made in house; host or cells: EBV-transformed homozygous human B cell lines, transfected fibroblasts or single-allele 721.221 transfectants

[2] = target: T2, DRB1*0401 (Homo sapiens, UniProt P01903+P01911, A100K/A169T/F76Y/I96L/K127E/L162R/M171V/N62H/P40V/Q125Y/R42H/S133A/S149N/S66Y/V115G/V209L/W38E); conditions: read-out: IC50 nM to purified HLA DRB1*0401
T2 construct: made in house; host or cells: EBV-transformed homozygous human B cell lines, transfected fibroblasts or single-allele 721.221 transfectants

[3] = target: DRB1*1302 (Homo sapiens, UniProt P01903+P01911, A100E/A169T/K41T/L162R/M171V/P40S/Q125H/Q178H/Q39Y/Q99D/R42S/S66N/T262R/V115G/W38E/Y61H); conditions: read-out: IC50 nM to purified HLA DRB1*1302
[4] = target: T3, DRB1*1501 (Homo sapiens, UniProt P01903+P01911); conditions: read-out: IC50 nM to purified HLA DRB1*1501
T3 construct: made in house; host or cells: EBV-transformed homozygous human B cell lines, transfected fibroblasts or single-allele 721.221 transfectants

Chain of DRB1*1302 (P01903 26-254 limits assumed, other chains not shown): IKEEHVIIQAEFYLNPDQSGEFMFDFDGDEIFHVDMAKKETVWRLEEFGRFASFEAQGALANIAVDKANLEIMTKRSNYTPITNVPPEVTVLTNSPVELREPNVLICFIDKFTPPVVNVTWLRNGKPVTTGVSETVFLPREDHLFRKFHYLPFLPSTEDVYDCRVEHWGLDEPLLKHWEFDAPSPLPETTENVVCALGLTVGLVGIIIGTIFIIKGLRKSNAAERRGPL

Structure (SMILES): CC[C@H](C)[C@H](NC(=O)[C@H](Cc1ccc(O)cc1)NC(=O)[C@@H](NC(=O)[C@@H](NC(=O)[C@@H]1CCCN1)[C@@H](C)O)[C@@H](C)O)C(=O)N[C@@H](CO)C(=O)N[C@H](C(=O)NCC(=O)N[C@H](C(=O)N[C@@H](CO)C(=O)N[C@H](C(=O)N[C@@H](CC(C)C)C(=O)N[C@@H](CC(N)=O)C(=O)N[C@@H](CCC(N)=O)C(=O)N[C@@H](CCCNC(=N)N)C(=O)N[C@@H](CC(C)C)C(=O)O)[C@@H](C)O)[C@@H](C)O)C(C)C [Flu.HA.210]
- IC50 [1]: 190 nM
- IC50 [2]: 59 nM
- IC50 [3]: 957 nM

Structure (SMILES): CC[C@H](C)[C@H](NC(=O)[C@H](C)NC(=O)[C@H](CC(=O)O)NC(=O)[C@H](CC(N)=O)NC(=O)[C@@H]1CCCN1C(=O)[C@H](CCCCN)NC(=O)[C@H](CC(C)C)NC(=O)[C@@H](NC(=O)[C@@H](NC(=O)[C@H](Cc1c[nH]c2ccccc12)NC(=O)[C@H](Cc1ccccc1)NC(=O)[C@H](Cc1ccccc1)NC(=O)[C@H](CCC(=O)O)NC(=O)[C@H](CCSC)NC(=O)[C@@H](N)CCCNC(=N)N)[C@@H](C)O)[C@@H](C)CC)C(=O)O [Flu.HA.241]
- IC50 [1]: 62 nM

Structure (SMILES): CC[C@H](C)[C@H](NC(=O)[C@H](C)NC(=O)[C@H](CC(=O)O)NC(=O)[C@H](CC(N)=O)NC(=O)[C@@H]1CCCN1C(=O)[C@H](CCCCN)NC(=O)[C@H](CC(C)C)NC(=O)[C@@H](NC(=O)[C@@H](NC(=O)[C@@H](N)Cc1c[nH]c2ccccc12)[C@@H](C)O)[C@@H](C)CC)C(=O)N[C@@H](CC(N)=O)C(=O)N[C@@H](Cc1ccccc1)C(=O)N[C@@H](CCC(=O)O)C(=O)N[C@@H](CO)C(=O)N[C@@H](CC(N)=O)C(=O)O [Flu.HA.246]
- IC50 [3]: 31 nM

Structure (SMILES): CC(C)C[C@H](NC(=O)CNC(=O)[C@@H](NC(=O)[C@H](C)NC(=O)[C@H](CC(C)C)NC(=O)[C@@H](NC(=O)[C@H](CC(C)C)NC(=O)[C@H](CCCNC(=N)N)NC(=O)[C@@H](N)CC(N)=O)C(C)C)[C@@H](C)O)C(=O)N[C@@H](CCCNC(=N)N)C(=O)N[C@@H](CC(N)=O)C(=O)N[C@@H](CO)C(=O)N1CCC[C@H]1C(=O)N[C@@H](CCC(N)=O)C(=O)N[C@@H](CCCNC(=N)N)C(=O)O [Flu.HA.325]
- IC50 [1]: 69 nM

Structure (SMILES): CC(C)C[C@H](NC(=O)[C@H](CCCCN)NC(=O)[C@@H](NC(=O)[C@H](CO)NC(=O)[C@H](C)NC(=O)[C@@H](NC(=O)[C@H](C)NC(=O)[C@H](CCCCN)NC(=O)[C@H](CCC(=O)O)NC(=O)[C@@H](NC(=O)[C@H](CC(C)C)NC(=O)[C@H](Cc1ccccc1)NC(=O)[C@H](CC(N)=O)NC(=O)[C@@H](NC(=O)[C@@H](N)CC(N)=O)[C@@H](C)O)[C@@H](C)O)C(C)C)C(C)C)C(=O)N[C@@H](C)C(=O)O [Flu.NA.51]
- IC50 [4]: 47 nM

Structure (SMILES): CC[C@H](C)[C@H](NC(=O)CNC(=O)[C@H](CC(N)=O)NC(=O)[C@H](Cc1ccc(O)cc1)NC(=O)[C@H](CCCCN)NC(=O)[C@H](CC(C)C)NC(=O)[C@@H](NC(=O)[C@H](C)NC(=O)[C@@H](N)C(C)C)C(C)C)C(=O)N[C@H](C(=O)N[C@H](C(=O)N[C@@H](CC(=O)O)C(=O)N[C@H](C(=O)N[C@H](C(=O)N[C@@H](CCCCN)C(=O)N[C@@H](CO)C(=O)N[C@@H](Cc1c[nH]c2ccccc12)C(=O)O)[C@@H](C)CC)[C@@H](C)O)[C@@H](C)O)[C@@H](C)CC [Flu.NA.183]
- IC50 [1]: 3390 nM
- IC50 [2]: 319 nM
- IC50 [4]: 19 nM

Structure (SMILES): CC[C@H](C)[C@H](NC(=O)[C@H](CCCCN)NC(=O)[C@@H](N)Cc1c[nH]cn1)C(=O)N[C@@H](Cc1ccccc1)C(=O)N[C@@H](CCCCN)C(=O)N[C@@H](CCSC)C(=O)N[C@@H](CCC(=O)O)C(=O)N[C@@H](CCCCN)C(=O)NCC(=O)N[C@@H](CCCCN)C(=O)N[C@H](C(=O)N[C@H](C(=O)N[C@@H](CCCCN)C(=O)N[C@@H](CO)C(=O)N[C@H](C(=O)N[C@@H](CCC(=O)O)C(=O)N[C@@H](CC(C)C)C(=O)O)C(C)C)C(C)C)C(C)C [Flu.NA.233]
- IC50 [1]: 64 nM

Structure (SMILES): CC[C@H](C)[C@H](NC(=O)[C@@H](NC(=O)[C@H](CCSC)NC(=O)[C@H](CC(=O)O)NC(=O)[C@@H](NC(=O)[C@H](CC(C)C)NC(=O)[C@H](Cc1ccc(O)cc1)NC(=O)[C@H](CCCNC(=N)N)NC(=O)[C@H](CO)NC(=O)[C@H](C)N)[C@@H](C)O)[C@@H](C)O)C(=O)N[C@@H](CCC(=O)O)C(=O)N[C@@H](CCC(=O)O)C(=O)N[C@@H](CCSC)C(=O)N[C@@H](CO)C(=O)N[C@@H](CCCNC(=N)N)C(=O)O [Flu.NS1.89]
- IC50 [1]: 6030 nM
- IC50 [2]: 67 nM

Structure (SMILES): CC[C@H](C)[C@H](NC(=O)[C@H](CC(C)C)NC(=O)[C@@H](NC(=O)[C@H](CCC(=O)O)NC(=O)[C@H](CC(C)C)NC(=O)[C@H](CCCNC(=N)N)NC(=O)[C@H](CC(=O)O)NC(=O)[C@H](Cc1ccccc1)NC(=O)[C@@H](NC(=O)[C@@H](NC(=O)[C@H](CO)NC(=O)[C@H](Cc1ccccc1)NC(=O)[C@@H](N)CC(N)=O)C(C)C)[C@@H](C)CC)[C@@H](C)O)C(=O)N[C@@H](CC(C)C)C(=O)N[C@@H](CC(C)C)C(=O)O [Flu.NS1.136]
- IC50 [1]: 17 nM
- IC50 [4]: 6930 nM

Structure (SMILES): CC[C@H](C)[C@H](NC(=O)[C@H](CCC(=O)O)NC(=O)[C@H](CCC(N)=O)NC(=O)[C@H](CCC(=O)O)NC(=O)[C@@H](NC(=O)[C@H](CCC(=O)O)NC(=O)[C@H](Cc1ccccc1)NC(=O)[C@@H](N)CC(C)C)C(C)C)C(=O)N[C@@H](CCCNC(=N)N)C(=O)N[C@H](C(=O)N[C@@H](Cc1ccccc1)C(=O)N[C@@H](CO)C(=O)N[C@@H](Cc1ccccc1)C(=O)N[C@@H](CCC(N)=O)C(=O)N[C@@H](CC(C)C)C(=O)O)[C@@H](C)O [Flu.NS2.182]
- IC50 [2]: 8800 nM

Structure (SMILES): CC(C)C[C@H](NC(=O)[C@H](Cc1c[nH]cn1)NC(=O)[C@H](CO)NC(=O)[C@@H](N)CCCNC(=N)N)C(=O)N[C@@H](CCCNC(=N)N)C(=O)N[C@@H](CC(N)=O)C(=O)N[C@@H](CC(=O)O)C(=O)N[C@H](C(=O)N[C@@H](CC(=O)O)C(=O)N[C@H](C(=O)N[C@H](C(=O)N[C@@H](CC(N)=O)C(=O)N[C@@H](Cc1ccccc1)C(=O)N[C@H](C(=O)N[C@@H](CO)C(=O)O)C(C)C)C(C)C)C(C)C)[C@@H](C)O [Flu.PA.511]
- IC50 [2]: 200 nM

Structure (SMILES): CC[C@H](C)[C@H](NC(=O)[C@@H](NC(=O)[C@H](CCC(=O)O)NC(=O)[C@H](CCSC)NC(=O)[C@@H](N)[C@@H](C)O)C(C)C)C(=O)N[C@@H](CCC(N)=O)C(=O)N[C@@H](CCC(N)=O)C(=O)N[C@H](C(=O)N[C@@H](CCCNC(=N)N)C(=O)N[C@H](C(=O)N[C@@H](CC(=O)O)C(=O)N[C@@H](CCCCN)C(=O)N[C@@H](CC(C)C)C(=O)N[C@H](C(=O)N[C@@H](CCC(N)=O)C(=O)O)[C@@H](C)O)C(C)C)[C@@H](C)O [Flu.PB1.113]
- IC50 [3]: 180 nM

Structure (SMILES): CC[C@H](C)[C@H](NC(=O)[C@H](CCC(=O)O)NC(=O)[C@H](CCSC)NC(=O)[C@H](CCC(=O)O)NC(=O)[C@H](CCC(=O)O)NC(=O)[C@@H](N)CCCCN)C(=O)N[C@H](C(=O)N[C@H](C(=O)N[C@@H](Cc1c[nH]cn1)C(=O)N[C@@H](Cc1ccccc1)C(=O)N[C@@H](CCC(N)=O)C(=O)N[C@@H](CCCNC(=N)N)C(=O)N[C@@H](CCCCN)C(=O)N[C@@H](CCCNC(=N)N)C(=O)N[C@@H](CCCNC(=N)N)C(=O)O)[C@@H](C)O)[C@@H](C)O [Flu.PB1.179]
- IC50 [1]: 1400 nM

Structure (SMILES): CSCC[C@H](NC(=O)[C@H](CO)NC(=O)[C@H](Cc1ccccc1)NC(=O)[C@H](CC(N)=O)NC(=O)[C@H](C)NC(=O)[C@@H](N)C(C)C)C(=O)N[C@@H](CCC(=O)O)C(=O)N[C@@H](CC(C)C)C(=O)N1CCC[C@H]1C(=O)N[C@@H](CO)C(=O)N[C@@H](Cc1ccccc1)C(=O)NCC(=O)N[C@H](C(=O)N[C@@H](CO)C(=O)NCC(=O)O)C(C)C [Flu.PB1.505]
- IC50 [1]: 20 nM
- IC50 [2]: 17 nM

Structure (SMILES): CSCC[C@H](NC(=O)[C@H](CC(C)C)NC(=O)[C@H](CCC(=O)O)NC(=O)[C@@H](N)Cc1c[nH]c2ccccc12)C(=O)N[C@@H](CC(=O)O)C(=O)N[C@@H](CCC(=O)O)C(=O)N[C@@H](CC(=O)O)C(=O)N[C@@H](Cc1ccc(O)cc1)C(=O)N[C@@H](CCC(N)=O)C(=O)NCC(=O)N[C@@H](CCCNC(=N)N)C(=O)N[C@@H](CC(C)C)C(=O)N[C@@H](CS)C(=O)N[C@@H](CC(N)=O)C(=O)N1CCC[C@H]1C(=O)O [Flu.PB1.616]
- IC50 [2]: 480 nM

Structure (SMILES): CC[C@H](C)[C@H](NC(=O)CNC(=O)[C@H](CCCNC(=N)N)NC(=O)[C@H](CCC(N)=O)NC(=O)[C@H](CO)NC(=O)[C@@H](NC(=O)[C@H](CC(N)=O)NC(=O)[C@H](CC(C)C)NC(=O)[C@@H](NC(=O)[C@H](CO)NC(=O)[C@@H](N)CCCNC(=N)N)[C@@H](C)CC)[C@@H](C)O)C(=O)N[C@@H](CC(C)C)C(=O)N[C@@H](CCC(=O)O)C(=O)N[C@@H](CC(=O)O)C(=O)N[C@@H](CCC(=O)O)C(=O)O [Flu.PB1.675]
- IC50 [1]: 94 nM
- IC50 [3]: 71 nM

Structure (SMILES): CC[C@H](C)[C@H](NC(=O)[C@@H](NC(=O)[C@@H](N)CC(=O)O)C(C)C)C(=O)N[C@@H](CCSC)C(=O)N[C@@H](CCC(=O)O)C(=O)N[C@H](C(=O)N[C@H](C(=O)N[C@@H](Cc1ccccc1)C(=O)N1CCC[C@H]1C(=O)N[C@@H](CC(N)=O)C(=O)N[C@@H](CCC(=O)O)C(=O)N[C@H](C(=O)NCC(=O)N[C@@H](C)C(=O)N[C@@H](CCCNC(=N)N)C(=O)O)C(C)C)C(C)C)C(C)C [Flu.PB2.164]
- IC50 [2]: 1100 nM

Structure (SMILES): CC[C@H](C)[C@H](NC(=O)CNC(=O)[C@@H](NC(=O)[C@@H](N)CCSC)[C@@H](C)CC)C(=O)N[C@@H](CC(C)C)C(=O)N1CCC[C@H]1C(=O)N[C@@H](CC(=O)O)C(=O)N[C@@H](CCSC)C(=O)N[C@H](C(=O)N1CCC[C@H]1C(=O)N[C@@H](CO)C(=O)N[C@H](C(=O)N[C@@H](CCC(=O)O)C(=O)N[C@@H](CCSC)C(=O)N[C@@H](CO)C(=O)O)[C@@H](C)O)[C@@H](C)O [Flu.PB2.463]
- IC50 [2]: 31 nM
